Results taken from ChEMBL document CHEMBL4680139, “Antiproliferative activity of diarylnaphthylpyrrolidine derivative via dual target inhibition” (Eur J Med Chem, 2020).

How the values were obtained:
THP-1 = assay: Antiproliferative activity against human THP-1 cells assessed as inhibition of cell growth measured after 48 hrs by SRB assay; format: functional, cell-based; conditions: THP-1, 48 h
MCF7 [1] = assay: Antiproliferative activity against human MCF-7 cells assessed as proportion of dead cells at 25 ug/ml measured after 3 weeks by crystal violet staining based soft agar colony formation assay; format: functional; conditions: dose 25 µg/ml
MCF7 [2] = assay: Antiproliferative activity against human MCF-7 cells assessed as proportion of dead cells at 50 ug/ml measured after 3 weeks by crystal violet staining based soft agar colony formation assay; format: functional; conditions: dose 50 µg/ml
MDA-MB-231 [3] = assay: Induction of apoptosis in human MDA-MB-231 cells at 2.6 uM by propidium iodide staining based flow cytometry (reference value: 2.6 +/- 0.28%); format: functional
MCF7 [4] = assay: Induction of apoptosis in human MCF-7 cells at 8.66 uM by propidium iodide staining based flow cytometry (reference value: 2.1%); format: functional
MDA-MB-231 [5] = assay: Induction of apoptosis in human MDA-MB-231 cells at 10.42 uM by propidium iodide staining based flow cytometry (reference value: 2.6 +/- 0.28%); format: functional
MCF7 [6] = assay: Induction of cell cycle arrest in human MCF-7 cells assessed as accumulation at G0/G1 phase at 8.66 uM by propidium iodide staining based flow cytometry (reference value: 74.5%); format: functional
MCF7 [7] = assay: Induction of cell cycle arrest in human MCF-7 cells assessed as accumulation at S phase at 2.17 uM by propidium iodide staining based flow cytometry (reference value: 6.9%); format: functional
MDA-MB-231 [8] = assay: Induction of cell cycle arrest in human MDA-MB-231 cells assessed as accumulation at S phase at 2.6 uM by propidium iodide staining based flow cytometry (reference value: 11.35 +/- 0.07%); format: functional
MCF7 [9] = assay: Induction of cell cycle arrest in human MCF-7 cells assessed as accumulation at G2/M phase at 4.33 uM by propidium iodide staining based flow cytometry (reference value: 15.2%); format: functional
MDA-MB-231 [10] = assay: Induction of cell cycle arrest in human MDA-MB-231 cells assessed as accumulation at G2/M phase at 5.21 uM by propidium iodide staining based flow cytometry (reference value: 8.35 +/- 0.07%); format: functional
MDA-MB-231 [11] = assay: Induction of cell cycle arrest in human MDA-MB-231 cells assessed as accumulation at G2/M phase at 10.42 uM by propidium iodide staining based flow cytometry (reference value: 8.35 +/-0.07%); format: functional
MCF7 [12] = assay: Induction of apoptosis in human MCF-7 cells assessed as proportion of viable cells at 4.33 uM measured after 24 hrs by Annexin V- FITC/propidium iodide staining based flow cytometry (reference value: 94.6%); format: functional
MCF7 [13] = assay: Induction of apoptosis in human MCF-7 cells assessed as proportion of necrotic cells at 4.33 uM measured after 24 hrs by Annexin V- FITC/propidium iodide staining based flow cytometry (reference value: 5.3%); format: functional
MCF7 [14] = assay: Induction of apoptosis in human MCF-7 cells assessed as proportion of viable cells at 8.66 uM measured after 24 hrs by Annexin V- FITC/propidium iodide staining based flow cytometry (reference value: 94.6%); format: functional
MCF7 [15] = assay: Induction of apoptosis in human MCF-7 cells assessed as proportion of early apoptotic cells at 8.66 uM measured after 24 hrs by Annexin V- FITC/propidium iodide staining based flow cytometry (reference value: 0%); format: functional
MDA-MB-231 [16] = assay: Induction of apoptosis in human MDA-MB-231 cells assessed as proportion of early apoptotic cells at 2.6 uM measured after 24 hrs by Annexin V-FITC/propidium iodide staining based flow cytometry (reference value: 0.2%); format: functional
MDA-MB-231 [17] = assay: Induction of apoptosis in human MDA-MB-231 cells assessed as proportion of late apoptotic cells at 2.6 uM measured after 24 hrs by Annexin V-FITC/propidium iodide staining based flow cytometry (reference value: 0.5%); format: functional
MDA-MB-231 [18] = assay: Induction of apoptosis in human MDA-MB-231 cells assessed as proportion of early apoptotic cells at 5.21 uM measured after 24 hrs by Annexin V-FITC/propidium iodide staining based flow cytometry (reference value: 0.2%); format: functional
MDA-MB-231 [19] = assay: Induction of apoptosis in human MDA-MB-231 cells assessed as proportion of viable cells at 10.42 uM measured after 24 hrs by Annexin V-FITC/propidium iodide staining based flow cytometry (reference value: 99%); format: functional
[20] = molecular target: DNA topoisomerase 2-alpha (Homo sapiens) (UniProt P11388); assay: Inhibition of DNA-topoisomerase 2 in human MCF7 cells using kinetoplast DNA as substrate at 8.66 uM measured by ELISA; format: cell-based
[21] = Toxicity in Swiss albino mouse assessed as RBC level in blood at 5 mg/kg, po administered as single dose (reference value: 10.56 +/- 1.22x10^6/mm3); format: organism-based; conditions: in vivo
[22] = Toxicity in Swiss albino mouse assessed as total bilirubin level in serum at 5 mg/kg, po administered as single dose (reference value: 0.62 +/-0.05 mg/dl); format: organism-based; conditions: in vivo
[23] = Toxicity in Swiss albino mouse assessed as creatinine level in serum at 5 mg/kg, po administered as single dose (reference value: 0.27+/-0.02 mg/dl); format: organism-based; conditions: in vivo
[24] = Toxicity in Swiss albino mouse assessed as albumin level in serum at 50 mg/kg, po administered as single dose (reference value: 0.56 +/-0.02 g/dl); format: organism-based; conditions: in vivo
[25] = Toxicity in Swiss albino mouse assessed as total bilirubin level in serum at 50 mg/kg, po administered as single dose (reference value: 0.62 +/-0.05 mg/dl); format: organism-based; conditions: in vivo
[26] = Toxicity in Swiss albino mouse assessed as creatinine level in serum at 50 mg/kg, po administered as single dose (reference value: 0.27+/-0.02 mg/dl); format: organism-based; conditions: in vivo
[27] = Toxicity in Swiss albino mouse assessed as triglyceride level in serum at 50 mg/kg, po administered as single dose (reference value: 78.34 +/-2.99 mg/dl); format: organism-based; conditions: in vivo
[28] = Toxicity in Swiss albino mouse assessed as albumin level in serum at 300 mg/kg, po administered as single dose (reference value: 0.56 +/-0.02 g/dl); format: organism-based; conditions: in vivo
[29] = Toxicity in Swiss albino mouse assessed as total bilirubin level in serum at 300 mg/kg, po administered as single dose (reference value: 0.62 +/-0.05 mg/dl); format: organism-based; conditions: in vivo
[30] = Toxicity in Swiss albino mouse assessed as triglyceride level in serum at 300 mg/kg, po administered as single dose (reference value: 78.34 +/-2.99 mg/dl); format: organism-based; conditions: in vivo
[31] = Toxicity in Swiss albino mouse assessed as cholesterol level in serum at 300 mg/kg, po administered as single dose (reference value: 103.62 +/-7.45 mg/dl); format: organism-based; conditions: in vivo
[32] = Toxicity in Swiss albino mouse assessed as mortality upto 300 mg/kg, po administered as single dose; format: organism-based; conditions: in vivo
[33] = Toxicity in Swiss albino mouse assessed as absolute and relative lung weight at 5 to 300 mg/kg, po administered as single dose; format: organism-based; conditions: in vivo, dose 5-300 mg/kg
[34] = Toxicity in po dosed Swiss albino mouse administered as single dose; format: organism-based; conditions: in vivo

Chain of DNA topoisomerase 2-alpha (Homo sapiens) (P11388 whole entry): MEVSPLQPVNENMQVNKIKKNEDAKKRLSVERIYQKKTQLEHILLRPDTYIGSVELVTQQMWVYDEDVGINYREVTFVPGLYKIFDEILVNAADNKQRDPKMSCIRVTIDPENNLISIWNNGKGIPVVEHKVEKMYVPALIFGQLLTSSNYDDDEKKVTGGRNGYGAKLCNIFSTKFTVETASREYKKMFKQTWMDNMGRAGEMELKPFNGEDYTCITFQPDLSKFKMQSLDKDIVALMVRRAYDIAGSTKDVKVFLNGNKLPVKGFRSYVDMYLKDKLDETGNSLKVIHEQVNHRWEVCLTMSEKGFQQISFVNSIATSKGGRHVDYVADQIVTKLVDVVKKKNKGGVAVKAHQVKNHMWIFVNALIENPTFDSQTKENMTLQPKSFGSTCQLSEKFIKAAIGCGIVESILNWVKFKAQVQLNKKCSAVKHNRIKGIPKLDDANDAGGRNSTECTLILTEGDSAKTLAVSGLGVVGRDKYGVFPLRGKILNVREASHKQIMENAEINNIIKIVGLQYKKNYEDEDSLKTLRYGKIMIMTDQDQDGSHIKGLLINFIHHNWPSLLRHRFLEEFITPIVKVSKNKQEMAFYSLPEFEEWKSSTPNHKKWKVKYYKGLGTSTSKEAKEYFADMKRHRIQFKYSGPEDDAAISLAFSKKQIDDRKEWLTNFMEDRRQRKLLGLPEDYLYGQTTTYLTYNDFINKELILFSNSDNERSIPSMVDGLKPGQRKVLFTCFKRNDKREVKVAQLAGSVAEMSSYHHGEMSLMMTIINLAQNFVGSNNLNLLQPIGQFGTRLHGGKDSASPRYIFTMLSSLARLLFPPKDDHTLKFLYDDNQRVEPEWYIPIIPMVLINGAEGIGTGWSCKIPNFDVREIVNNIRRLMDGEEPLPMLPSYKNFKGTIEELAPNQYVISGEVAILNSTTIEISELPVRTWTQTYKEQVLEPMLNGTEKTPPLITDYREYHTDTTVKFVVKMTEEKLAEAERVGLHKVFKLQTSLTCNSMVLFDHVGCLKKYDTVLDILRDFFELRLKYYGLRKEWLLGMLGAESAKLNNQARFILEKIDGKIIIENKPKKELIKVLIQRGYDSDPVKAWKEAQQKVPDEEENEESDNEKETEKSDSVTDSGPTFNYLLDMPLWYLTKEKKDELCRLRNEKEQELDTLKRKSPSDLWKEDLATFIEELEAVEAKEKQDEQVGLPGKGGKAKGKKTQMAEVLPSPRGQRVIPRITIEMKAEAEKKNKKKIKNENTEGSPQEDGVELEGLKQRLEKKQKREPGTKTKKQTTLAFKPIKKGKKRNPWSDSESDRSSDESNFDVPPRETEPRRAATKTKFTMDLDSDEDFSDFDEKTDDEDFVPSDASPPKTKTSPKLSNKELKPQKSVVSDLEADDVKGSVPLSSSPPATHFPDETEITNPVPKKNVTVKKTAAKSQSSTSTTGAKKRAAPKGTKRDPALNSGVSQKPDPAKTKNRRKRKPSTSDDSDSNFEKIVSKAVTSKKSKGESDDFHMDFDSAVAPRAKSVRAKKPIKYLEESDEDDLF

**Q.** With COc1ccc(C(c2ccccc2OCCN2CCCC2)c2cccc3ccccc23)c(OC)c1OC (stereo not given) as the compound, how does the IC50 (THP-1) read?
**A.** The IC50 was 12.6 µM.

**Q.** And the Activity (MCF7 [1])?
**A.** The Activity was 79.36%.

**Q.** And the Activity (MCF7 [2])?
**A.** The Activity was 87.02%.

**Q.** What about the Activity (MDA-MB-231 [3]) of the same compound?
**A.** The Activity was 2.7%.

**Q.** What about the Activity (MCF7 [4]) of the same compound?
**A.** The Activity was 11.4%.

**Q.** What about the Activity (MDA-MB-231 [5]) of the same compound?
**A.** Its Activity is 16.7%.

**Q.** What about the Activity (MCF7 [6]) of the same compound?
**A.** Its Activity is 66.5%.

**Q.** What about the Activity (MCF7 [7]) of the same compound?
**A.** The Activity was 10.9%.

**Q.** And the Activity (MDA-MB-231 [8])?
**A.** The Activity was 6.75%.

**Q.** What about the Activity (MCF7 [9]) of the same compound?
**A.** The Activity was 13.4%.

**Q.** And the Activity (MDA-MB-231 [10])?
**A.** Its Activity is 10.2%.

**Q.** And the Activity (MDA-MB-231 [11])?
**A.** The Activity was 15.05%.

**Q.** What about the Activity (MCF7 [12]) of the same compound?
**A.** The Activity was 63.1%.

**Q.** And the Activity (MCF7 [13])?
**A.** The Activity was 10.5%.

**Q.** And the Activity (MCF7 [14])?
**A.** The Activity was 61.8%.

**Q.** What about the Activity (MCF7 [15]) of the same compound?
**A.** Its Activity is 0%.

**Q.** What about the Activity (MDA-MB-231 [16]) of the same compound?
**A.** The Activity was 0.8%.

**Q.** And the Activity (MDA-MB-231 [17])?
**A.** Its Activity is 2%.

**Q.** And the Activity (MDA-MB-231 [18])?
**A.** The Activity was 0.4%.

**Q.** What about the Activity (MDA-MB-231 [19]) of the same compound?
**A.** The Activity was 49.4%.

**Q.** And the inhibition [20]?
**A.** Its inhibition is 13.7%.

**Q.** And the Activity [21]?
**A.** Its Activity is 13.06 million/mm3.

**Q.** What about the Activity [22] of the same compound?
**A.** Its Activity is 0.66 mg/dL.

**Q.** And the Activity [23]?
**A.** The Activity was 0.22 mg/dL.

**Q.** What about the Activity [24] of the same compound?
**A.** The Activity was 0.57 g/dL.

**Q.** And the Activity [25]?
**A.** Its Activity is 0.62 mg/dL.

**Q.** What about the Activity [26] of the same compound?
**A.** Its Activity is 0.34 mg/dL.

**Q.** What about the Activity [27] of the same compound?
**A.** The Activity was 94.42 mg/dL.

**Q.** What about the Activity [28] of the same compound?
**A.** Its Activity is 0.54 g/dL.

**Q.** What about the Activity [29] of the same compound?
**A.** The Activity was 1.01 mg/dL.

**Q.** What about the Activity [30] of the same compound?
**A.** The Activity was 106.09 mg/dL.

**Q.** And the Activity [31]?
**A.** Its Activity is 120.54 mg/dL.

**Q.** What about the Activity [32] of the same compound?
**A.** The Activity was “Non-Toxic”.

**Q.** What about the Activity [33] of the same compound?
**A.** The Activity was “Non-Toxic”.

**Q.** And the MTD [34]?
**A.** The MTD was no more than 300 mg/kg.
